Experimental data from US8329686B2, “Isatin analogues and uses therefor” (Washington University, priority 2006, dated 2012).
Read-outs that look alike come from different tables or passages of the source.

Assays:
Assay type in all cases: biochemical
caspase 8 = molecular target: T1, caspase 8 (Homo sapiens, UniProt Q14790); experiment: Enzyme inhibition assay, caspase 8 (fluorogenic Ac-IETD-AMC)
T1 construct: purchased Sigma-Aldrich (St. Louis, Mo.)

caspase 7 = molecular target: T2, caspase 7 (Homo sapiens, UniProt P55210); experiment: Enzyme inhibition assay, caspase 7 (fluorogenic Ac-DEVD-AMC)
T2 construct: purchased Sigma-Aldrich (St. Louis, Mo.)
T2 sequence (P55210 24-198 limits assumed): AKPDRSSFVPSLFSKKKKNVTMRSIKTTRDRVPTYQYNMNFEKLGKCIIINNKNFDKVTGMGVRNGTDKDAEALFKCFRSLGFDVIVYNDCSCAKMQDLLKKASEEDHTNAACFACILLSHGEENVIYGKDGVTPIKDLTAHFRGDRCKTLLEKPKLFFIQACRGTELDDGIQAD
T2 sequence (P55210 207-303 limits assumed): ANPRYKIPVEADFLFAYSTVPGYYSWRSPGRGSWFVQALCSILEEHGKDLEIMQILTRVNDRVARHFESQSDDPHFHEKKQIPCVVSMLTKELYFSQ

caspase 1 = molecular target: T3, caspase 1 (Homo sapiens, UniProt P29466); experiment: Enzyme inhibition assay, caspase 1 (fluorogenic Ac-YVAD-AMC)
T3 construct: purchased BIOMOL Research Laboratories (Plymouth Meeting, Pa.)
T3 sequence (P29466 120-297 limits assumed): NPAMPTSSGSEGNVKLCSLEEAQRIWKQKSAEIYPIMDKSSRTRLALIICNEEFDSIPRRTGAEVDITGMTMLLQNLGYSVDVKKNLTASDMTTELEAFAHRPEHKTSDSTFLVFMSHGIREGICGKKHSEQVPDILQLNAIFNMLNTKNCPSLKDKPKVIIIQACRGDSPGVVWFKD
T3 sequence (P29466 317-404 limits assumed): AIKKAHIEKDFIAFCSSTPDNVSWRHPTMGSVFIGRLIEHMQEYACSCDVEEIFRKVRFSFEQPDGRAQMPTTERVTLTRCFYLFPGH

caspase-3 = molecular target: T4, caspase-3 (Homo sapiens, UniProt P42574); experiment: Enzyme inhibition assay, caspase 3 (fluorogenic Ac-DEVD-AMC)
T4 construct: purchased Sigma-Aldrich (St. Louis, Mo.)
T4 sequence (P42574 29-175 limits assumed): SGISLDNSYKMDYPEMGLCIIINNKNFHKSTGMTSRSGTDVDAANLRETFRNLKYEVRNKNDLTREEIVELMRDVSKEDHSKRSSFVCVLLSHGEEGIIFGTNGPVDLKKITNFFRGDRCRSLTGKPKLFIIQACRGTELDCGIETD
T4 sequence (P42574 176-277 limits assumed): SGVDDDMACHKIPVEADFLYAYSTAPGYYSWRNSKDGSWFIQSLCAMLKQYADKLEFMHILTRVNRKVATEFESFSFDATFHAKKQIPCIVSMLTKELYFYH

caspase 6 = molecular target: T5, caspase 6 (Homo sapiens, UniProt P55212); experiment: Enzyme inhibition assay, caspase 6 (fluorogenic Ac-VEID-AMC)
T5 construct: purchased Sigma-Aldrich (St. Louis, Mo.)
T5 sequence (P55212 24-179 limits assumed): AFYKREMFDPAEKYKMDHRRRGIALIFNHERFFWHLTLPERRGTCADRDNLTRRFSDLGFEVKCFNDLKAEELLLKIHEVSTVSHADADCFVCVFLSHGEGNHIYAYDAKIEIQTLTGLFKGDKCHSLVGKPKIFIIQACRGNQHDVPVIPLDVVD
T5 sequence (P55212 194-293 limits assumed): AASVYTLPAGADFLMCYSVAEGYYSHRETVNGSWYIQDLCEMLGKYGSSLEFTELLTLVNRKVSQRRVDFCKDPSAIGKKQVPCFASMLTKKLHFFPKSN

[1] = Table 1, read-out: IC50 (nM) Caspase 8
[2] = Table 7, read-out: IC50 (nM) Casp-8
[3] = Table 1, read-out: IC50 (nM) Caspase 1
[4] = Table 7, read-out: IC50 (nM) Casp-1
[5] = Table 2, read-out: IC50 (nM) Caspase 3
[6] = Table 2, read-out: IC50 (nM) Caspase 8
[7] = Table 2, read-out: IC50 (nM) Caspase 7
[8] = Table 2, read-out: IC50 (nM) Caspase 1
[9] = Table 2, read-out: IC50 (nM) Caspase 6

T1 sequence (Q14790 217-374 limits assumed): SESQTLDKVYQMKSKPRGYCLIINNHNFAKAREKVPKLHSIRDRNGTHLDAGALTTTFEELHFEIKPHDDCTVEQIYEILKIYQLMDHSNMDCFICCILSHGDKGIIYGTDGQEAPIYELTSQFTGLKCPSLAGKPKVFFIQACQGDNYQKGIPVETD
T1 sequence (Q14790 385-479 limits assumed): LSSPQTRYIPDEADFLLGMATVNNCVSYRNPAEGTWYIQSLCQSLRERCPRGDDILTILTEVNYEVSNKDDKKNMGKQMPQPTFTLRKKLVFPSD

IC50 (caspase-3; [5])	IC50 (caspase 8; [6])	IC50 (caspase 7; [7])	IC50 (caspase 1; [8])	IC50 (caspase 6; [9])	Compound	IC50 (caspase 8; [2])	IC50 (caspase 7; IC50 (nM) Casp-7, Table 7)	IC50 (caspase 1; [4])	other results
> 1000 nM					COc1ccc(CN2C(=O)C(=CC#N)c3cc(S(=O)(=O)N4CCC[C@H]4COc4ccccc4)ccc32)cc1 [WC-II-99]				potency as caspase-3/7 inhibitors (in words) (caspase-3): low potency
7.1 ± 0.6 nM	> 50000 nM	22.7 ± 3.1 nM	2900 nM	580 ± 55 nM	N#CC(C#N)=C1C(=O)N(Cc2ccc(OCCF)cc2)c2ccc(S(=O)(=O)N3CC[C@H]3COc3cccnc3)cc21 [WC-II-104]				
6 ± 0.8 nM	> 50000 nM	50 ± 11.6 nM	3600 nM	450 ± 43 nM	COc1ccc(CN2C(=O)C(=C(C#N)C#N)c3cc(S(=O)(=O)N4CC[C@H]4COc4cccnc4)ccc32)cc1 [WC-II-87]				

The next lines start with the molecule.

Compound	IC50 (caspase-3; [5])	IC50 (caspase 8; [6])	IC50 (caspase 7; [7])	IC50 (caspase 1; [8])	IC50 (caspase 6; [9])	IC50 (caspase 8; [2])	IC50 (caspase 7; IC50 (nM) Casp-7, Table 7)	IC50 (caspase 1; [4])	other results
O=C1C(=O)N(Cc2ccc(Br)cc2)c2ccc(S(=O)(=O)N3CCCC3COc3ccccc3)cc21 (centres unmarked) [Compound 25d, 1-(4-Bromo-benzyl)-5-(2-Phenoxymethyl-pyrrolidine-1-sulfonyl)-1H-indole-2,3-dione]						> 50000 nM	34.8 ± 1.4 nM	> 15000 nM	IC50 (caspase 8; [1]): > 50000 nM; IC50 (caspase 7; IC50 (nM) Caspase 7, Table 1): 34.8 ± 1.4 nM; IC50 (caspase 1; [3]): > 15000 nM; IC50 (caspase-3; IC50 (nM) Casp-3, Table 7): 9.85 ± 0.9 nM; IC50 (caspase-3; IC50 (nM) Caspase 3, Table 1): 9.9 ± 0.9 nM; IC50 (caspase 6): 8900 nM
O=C1Nc2ccc(S(=O)(=O)N3CC[C@H]3COc3ccccc3)cc2C1=NO [WC-II-52]	> 20000 nM	> 50000 nM	> 50000 nM	> 50000 nM	> 20000 nM				potency as caspase-3/7 inhibitors (in words) (caspase-3): low potency
N#CC(C#N)=C1C(=O)N(Cc2ccc(Br)cc2)c2ccc(S(=O)(=O)N3CCCC3COc3cccnc3)cc21 (centres unmarked) [Compound 30c, 2-{1-(4-Bromo-benzyl)-2-oxo-5-[2-(pyndine-3-yloxymethyl)-pyrrolidine-1-sulfonyl]-1,2-dihydro-indol-3-yl-idene}-malononitrile]		> 50000 nM				> 50000 nM	26.3 ± 0.8 nM		IC50 (caspase 8; read-out: IC50 for caspase-8): > 50000 nM; IC50 (caspase 7; IC50 (nM) Caspase 7, Table 2): 26.3 ± 0.8 nM; IC50 (caspase 7; IC50 for caspase-7): 26.3 nM; IC50 (caspase 1): 3400 nM; IC50 (caspase 1; IC50 (nM) Casp-1, Table 7): 3400 nM; IC50 (caspase 1; read-out: IC50 for caspase-1): 2700 to 3200 nM; IC50 (caspase-3; IC50 (nM) Caspase 3, Table 2): 5.13 ± 0.7 nM; IC50 (caspase-3; IC50 for caspase-3): 5.1 nM; IC50 (caspase 6): 515 ± 77 nM; IC50 (caspase 6; read-out: IC50 for caspase-6): 515 to 770 nM
O=C1C(=O)N(Cc2ccc(Br)cc2)c2ccc(S(=O)(=O)N3CCCC3COc3cccnc3)cc21 (centres unmarked) [Compound 28c, 1-(4-Bromo-benzyl)-5-[2-(pyridin-3-yl-oxymethyl)-pyrrolidine-1-sulfonyl]-1H-indole-2,3-dione]						> 50000 nM	6.6 ± 0.1 nM	> 15000 nM	IC50 (caspase 8; [1]): > 50000 nM; IC50 (caspase 7; IC50 (nM) Caspase 7, Table 1): 6.6 ± 0.1 nM; IC50 (caspase 1; [3]): > 15000 nM; IC50 (caspase-3; IC50 (nM) Casp-3, Table 7): 3.6 ± 0.5 nM; IC50 (caspase-3; IC50 (nM) Caspase 3, Table 1): 3.6 ± 0.5 nM
N#CC(C#N)=C1C(=O)Nc2ccc(S(=O)(=O)N3CC[C@H]3COc3ccccc3)cc21 [WC-II-54]	283 ± 15 nM	> 50000 nM	2380 nM	2380 nM	540 ± 44 nM				
CN1C(=O)C(=O)c2cc(S(=O)(=O)N3CCCC3COc3cccnc3)ccc21 (centres unmarked) [Compound 21a, 1-Methyl-5-(2-(pyridin-3-yl-oxymethyl)-pyrrolidine-1-sulfonyl)-1H-indole-2,3-dione]									IC50 (caspase 8): > 50000 nM; IC50 (caspase 7; Table 6, read-out: IC50 (nM) caspase-7): 94.9 ± 21.6 nM; IC50 (caspase 1; Table 6, read-out: IC50 (nM) caspase-1): > 10000 nM; IC50 (caspase-3; IC50 (nM) caspase-3, Table 6): 23.3 ± 3.1 nM; IC50 (caspase 6; Table 6, read-out: IC50 (nM) caspase-6): > 5000 nM
CN1C(=O)C(=C(C#N)C#N)c2cc(S(=O)(=O)N3CCCC3COc3ccccc3)ccc21 (centres unmarked) [Compound 27a, 2-[1-Methyl-2-oxo-5-(2-phenoxymethyl-pyrrolidine-1-sulfonyl)-1,2-dihydro-indol-3-yl-idene]-malononitrile]	119 ± 4 nM	> 50000 nM	785 ± 276 nM	2820 nM	698 ± 94 nM	> 50000 nM		2820 ± 248 nM	IC50 (caspase 7; Table 7, read-out: IC50 (nM) Casp-7): 785 ± 276 nM; IC50 (caspase-3; Table 7, read-out: IC50 (nM) Casp-3): 119 ± 4 nM; IC50 (caspase 6; Table 7, read-out: IC50 (nM) Casp-6): 698 ± 94 nM
